Laboratory results published in patent EP0084677A1, “New compound having mucoregulating and fluidifying activity, process for its production and relative pharmaceutical compositions” (priority 1982, dated 1983).

Columns and labels:
male rabbit = test: Mucosecretolytic activity (technique of Giraldez et al.); format: in vivo; details: 500 mg/kg/os
Wistar rat = test: Acute toxicity (Litchfield and Wilcoxon method), rat; format: in vivo
Text: (§1) The acute toxicity has been determined in Swiss mouse and in Wistar rat for different administra tion routes, according to the method of Litch- field J.T. and Wilcoxon LJ. Pharm. Exp. Therap. 96, 99-113 (1949)]. The results obtained are reported in the following Table I; from the same it can be pointed out how AFP 736 is endowed with a very low acute toxicity.

Swiss mouse = test: Acute toxicity (Litchfield and Wilcoxon method), mouse; format: in vivo
Text: as §1

male Wistar rat = test: Bronchosecretogogue activity (method of Mawatari); format: in vivo; details: 500 mg/kg/os, FlNa = Sodium fluoresceine
[1] = test system: tracheo-bronchial mucus from rabbit; test: Fluidifying activity "in vivo" (microviscosimeter on tracheo-bronchial mucus); details: 500 mg/kg/os

| Molecule | % Increase of secretion in comparison with controls (male rabbit) [%] | LD50 (Wistar rat; i.p.) [mg/kg] | LD50 (Wistar rat; os) [mg/kg] | LD50 (Swiss mouse; i.p.) [mg/kg] | LD50 (Swiss mouse; os) [mg/kg] | % Increase of FlNa in comparison with controls (male Wistar rat) [%] | % Reduction of mucus viscosity [1] [%] |
| --- | --- | --- | --- | --- | --- | --- | --- |
| 5-[(2-metho xy-phenoxy) caxbonyloxy]- α,α, 4-trimethyl-3-cyclohexen-1-methanol [AFP 736] | 45.5 | 2340 | >4000 | 1750 | 3100 | 79.3 | 32.2 |
| NC(CSCC(=O)O)C(=O)O (centres unmarked) [Carboxy-methylcysteine, carboxymethylcysteine] | 40.2 |  |  |  |  | 39.7 |  |
| COc1ccccc1O [Guaiacol, 2-methoxyphenol] |  |  |  |  |  |  | 4.1 |
| COc1ccccc1OCC(O)CO (centres unmarked) [Guaiphe-nesine, guaiphenesin] |  |  |  |  |  | 12.6 |  |
| CC1=CCC(C(C)(C)O)CC1O (centres unmarked) [Sobrerol, 2-methyl-5-(1-hydroxy-1-methyl-ethyl)-2-cyclohexen-1-ol] | 36.8 |  |  |  |  | 33.4 | 15.6 |
